Measurements taken from patent US5863716A, “Treatment of plasmodium” (The Leland Stanford Junior University Board of Trustees, priority 1997, dated 1999).
Where two headings read alike, the source gives them in different places.

What was measured:
Type in all cases: cell-based, Plasmodium falciparum
[1] = tested on: P. falciparum strain FCB; assay: Inhibition of intraerythrocytic growth in culture, Giemsa staining after 24 h; details: for inhibition at 5 µM: Plasmodium falciparum, read-out: [%] inhibition of growth
Source text: (§1) P. falciparum strain FCB was used for all experiments and cultured in vitro in according to a modification of the method of Trager and Jensen left off. Trager, W. and Jensen, J. B. (1976) Human malaria in continuous culture., Science (Wash. D.C.) 193: 673-675 Haldar, K., Ferguson, M. A. J. and Cross, G. A. M. (1985) Acylation of a Plasmodium falciparum merozoite surface antigen via sn-1, 2-diacyl glycerol. J. Biol. Chem. 260; 4969-4974. The culture medium contained RPMI 1640 supplemented with 25 Mm hepes, Ph 7.4/11 […] glucose/92 μM hypoxanthine/0.18% sodium bicarbonate/25 μM gentamicin and 10% AB^+ human sera. The parasites were grown in A^+ erythrocytes at 2.5-5% hematocrit. Parasite cultures were synchronized by separation of the early and late stages on a Percoll gradient. The subsequent reincubation of these stages in culture were used to obtain cells 12-24 h in the life cycle. Inhibition of sphingomyelin biosynthetic activity using 5 μM of the various compounds was carried out as described in Example 1. 5 μM of the various compounds were added to 0-12 h rings in the culture medium and cells were examined by Giemsa staining after 24 h.

[2] = tested on: sphingomyelin synthase; assay: Inhibition of plasmodial sphingomyelin biosynthesis in intact infected erythrocytes (C6-NBD-ceramide to C6-NBD-sphingomyelin, TLC); details: for [%] inhibition of sphingomyelin biosynthetic activity: 5 μM of compound; for effect on enzyme (sphingomyelin synthase) activity: 5 μM, see Example 3
Method: 1×10^8 infected cells 24 h after invasion were washed serum-free in RPMI 1640 and preincubated for thirty min at 37° C. in 1 ml of RPMI 1640 containing 0-5 μM or 0-500 μM of PPMP. (C6-NBD-ceramide (N-[7-(4-nitrobenzo-2-oxa-1,3-diazide)]-6-aminocaproyl-D-erythro-sphingosine) was added to each sample at a final concentration of 5 μM, the samples further incubated for 30 min at 37° C. and cellular lipids extracted. C6-NBD-sphingomyelin was resolved by TLC and quantitated by fluorescence spectrophotometry as described previously. Bligh, E. G. and Dyer, W. Y. (1959) A rapid method for total lipid extraction and purification., Can. J. Biochem. Physiol. 37: 911-917. Haldar, K., Uyetake, L., Ahori, N., Elmendorf, H. G. and Lu, W-1. (1991) The accumulation and metabolism of a fluorescent ceramide derivative in Plasmodium falciparum--infected erythrocytes., Mo. Biochem. Parasitol. 49: 143-156. Elmendorf, H. G. and Haldar, K. (1994) Plasmodium falciparum exports the Golgi marker sphingomyelin synthase into a tubovesicular network in the cytoplasm of mature erythrocytes., J. Cell Biol. 124: 449-462. Each value obtained represented the mean of triplicate determinations from five experiments. The arrow bars indicate the standard deviations. The results are depicted in FIG. 1.
as §1

[3] = tested on: P. falciparum schizonts and merozoites; assay: Schizont maturation and merozoite invasion in the presence of drug; details: 5 μM
Method: Schizont-stage parasites isolated over Percoll were allowed to invade in the presence of RPMI 1640 containing 10% human serum or in the presence of RPMI 1640 containing 10% human serum and 5 μM PPMP. 1×10^8 infected erythrocytes of the appropriate stage were incubated in 1 ml of RPMI 1640 supplemented with 2mg/ml defatted BSA and 20 μM C5 -DMB-ceramide. Cells were washed and fixed as described in Example 5. Sequential micrographs were taken on a custom made laser confocal microscope at 400 nm intervals along the Z axis. Raw data were processed as described previously.
Furthermore, the released daughter merozoites enter red cells to form new rings in the continued presence of the drug. This supports the conclusion that the parasite sphingomyelin synthase is essential only to ring and trophozoite-infected red cells in the first 30 to 36 h of intraerythrocytic development.
To determine whether the parasite specific sphingomyelin synthase activity is required for the development of the TVM, ring-infected erythrocytes inhibited in the enzyme from the onset of intra- erythrocytic development were employed. […] Optical sections obtained by staining with C5 DMB-ceramide were observed. A tubular structure was seen extending from the body of the parasite apparently connected to a larger vesicle in the red cell. In rings formed in the presence of PPMP, the intraerythrocytic structures are seen as discrete domains, separated from each other in all three sections. […] Thus, specific inhibition of the parasite's sphingomyelin biosynthetic activity appears to alter the interconnected "tubovesicular morphology" of the TVM into isolated intraerythrocytic compartments or "vesicles" in ring stage parasites.

[4] = tested on: P. falciparum; assay: Intraerythrocytic development in long term synchronized culture, parasitemia over consecutive cycles; details: Plasmodium falciparum; over three cycles of growth; read-out: lowest effective, killing concentration
Method: Synchronized cultures 12 h after invasion were subjected to different concentrations of PPMP. Parasitemias of drug-treated cultures were determined at various time points during two intraerythrocytic cycles and compared to cells grown in the absence of drug.
The effect of the single lipid analogs to inhibit parasite development in long term culture in consecutive cycles of the parasite growth were investigated. The studies were initiated with synchronized, young rings (0-12h) at 10% parasitemia. In order to ensure healthy growth of the malaria parasite in vitro, the parasitemias of the cultures are not allowed to exceed 10%. Yet under normal conditions a 3-6 fold increase in parasitemias is detected with each round of invasion: thus for each new cycle, the cultures were diluted 4-fold into fresh erythrocytes in the absence or presence of the drug. […] The lowest effective, killing concentration of PDMP over three cycles of growth is 1.0 μM.

[5] = 5 μM added to 0-12 h rings, Giemsa staining after 24 h

Row | Compound | inhibition at 5 µM [1, 5] [%] | [%] inhibition of sphingomyelin biosynthetic activity [2] [%] | further results
1 | CCCCCCCCCCCCCCCCCCN [stearylamine] | 0 | – | –
2 | CCN(CC)CCO[C@H]1CC[C@@]2(C)C(=CC[C@@H]3[C@@H]2CC[C@]2(C)C(=O)CC[C@@H]32)C1 [U 18666 A] | 1 | 0 | –
3 | CCCCCCCCCC(=O)N[C@H](CN1CCOCC1)[C@H](O)c1ccccc1 (relative stereo) [dl-threo-PDMP, dl-threo-1-phenyl-2-decanoylamino-3-morpholino-1-propanol] | 100 | – | fate of schizonts greater than 40 h in the cycle [3]: mature and rupture; minimal effective concentration [4]: 1 µM
4 | CCCCCCCCCCCCCCC[C@H](O)[C@@H](N)CO (racemic) [dl-dihydrosphingosine] | – | 4 | [%] inhibition of growth [1, 5]: 8%; effect on enzyme (sphingomyelin synthase) activity [2]: no effect
5 | CN(C)CCCN1c2ccccc2CCc2ccccc21 [imipramine] | – | 0 | inhibition at 5 µM [1]: 7%
6 | CCCCCCCCCC(=O)N[C@@H](CN1CCOCC1)[C@H](O)c1ccccc1 (relative stereo) [dl-erythro-PDMP] | 5 | – | –
7 | CCCCCCCCCCCCC/C=C/[C@@H](O)[C@@H](N)CO [sphingosine] | – | 0 | inhibition at 5 µM [1]: 0%; effect on enzyme (sphingomyelin synthase) activity [2]: no effect
